The subject of assay [1] is EC 35218, EC 43888. Briefly: Checkerboard assay, chelator with antibiotic (FIC). It counts as cell-based, E. coli. From the text:
Drug interactions were initially evaluated with the “checkerboard” microdilution design, which provided a matrix of all drug combinations assayed in terms of fractions of the previously determined MIC. The checkerboard microdilution design is described in R. J. Tallarida, “Drug Synergism: Its Detection and Applications,” Journal of Pharmacology and Experimental Therapeutics, 865-872 (2001); and in R. L. White, et al., (1996), supra. FIGS. 39A and 39B show the wellplates having different concentrations of iron chelator and antibiotic, as labeled along the x-axis and y-axis.
The checkerboard assay was used to asses other combinations of iron chelators and antibiotics. The fractional inhibitory concentration index (FIC), which was calculated as follows: FIC=(MIC A in combination/MIC A)+(MIC B in combination/MIC B). Interaction was defined as synergistic if the FIC was <1.0, preferably <0.5, no interaction if the FIC was >1.0 and <4.0, and antagonistic if the FIC was >4.0. […]
The assay was run against the multi-drug resistant bacterial species AB 19606, AB 17978, EC 35218, and EC 43888.

Assay [2] concerns Acinetobacter baumannii strain 5711 (AB5711). Nature of the assay: Growth (OD600) of AB5711 in low iron media with chelators, with or without FeCl3. In kind it is cell-based. The conditions noted are these: for bacterial growth (OD600 growth curves): AB5711, low iron media, 100 μM or 200 μM chelator added after 4 hr, 24 hr. As for the experimental part:
Acinetobacter baumannii strain 5711 (AB5711) was grown overnight in LB media and sub-cultured into low iron media. The tested iron chelators were deferoxamine (DFO), deferiprone (DFP), 2,2-dipyridyl, and VK28. The iron chelators were added after 4 hr of growth.
Bacterial growth was estimated by absorption at OD600 every 4 hr for 24 hr. Optical density (OD) at 600 nm (OD600) as measured by a spectrophotometer is a widely used technique known by one skilled in the art to estimate the total number of bacterial cells present in a broth culture (CFU/ml). The exact amount of OD produced by a culture will depend on the concentration of cells present, the species and strain of microbe present, the growth conditions used, and the wavelength of the light being transmitted. Thus, the relationship between OD and cell concentrations will depend on the specific strain and growth conditions studied. For example, the OD600 of 1 for E. coli is about 1×10^9 CFU/ml.
This example provides further evidence that the removal of iron is responsible for bacterial growth inhibition. A. baumannii isolate 5711 was grown in low iron M9 media supplemented with 0 μM, 10 μM, or 100 μM FeCl3 with and without the addition of 200 μM VK28 following 4 hr of growth. Growth was estimated by absorbance at 600 nm every 4 hr for 24 hr.
This example provides further evidence that the removal of iron is responsible for bacterial growth inhibition. A. baumannii isolate 5711 was grown in low iron M9 media supplemented with 0 μM, 10 μM, 100 μM, or 1000 μM FeCl3 with and without the addition of 50 μg/ml of VK28 following 4 hr of growth. Growth was estimated by absorbance at 600 nm after 20 hours.

For assay [3], the system named is AB5075. Briefly: Time-kill assay in M9 minimal media. In kind it is cell-based, A. baumannii. To be noted: 24 hours. Here is the method:
Reductions in colony forming units (CFU)/mL were determined over time (time-kill assay) after exposure to VK28 and deferiprone (DFP), the two iron chelators that performed best in MIC assays when compared to controls. To better represent the iron content found in the human body, MIC and time-kill assays were also determined in minimal media and tissue culture media. Time-Kill assays were performed as previously described in G. P. Neupane et al., “In vitro time-kill activities of ciprofloxacin alone and in combination with the iron chelator deferasirox against Vibrio vulnificus,” European Journal of Clinical Microbiology and Infectious Diseases, 407-410 (2010); and R. L. White, et al., “Comparison of Three Different In Vitro Methods of Detecting synergy: Time-Kill, Checkerboard, and E test,” Journal of Antimicrobial Agents and Chemotherapy, 1914-1918 (1996). Initial inocula, for example 1×10^6 CFU/mL or 1×10^7 CFU/mL were challenged with iron chelator with and/or without an antibiotic. Cells were allowed to grow in CAMHB at 37° C. for 24 hours. Time-kill results were analyzed by determining the change in log 10 numbers of CFU/ml at 0, 6, and 24 h, compared to counts at 0 h. Antimicrobials were considered bactericidal at the lowest concentration that reduced the size of the original inoculum by >3 log 10 CFU/ml (99.9%) over each of the time periods and were considered bacteriostatic if the inoculum's size was reduced by 0 to <3 log 10 CFU/ml.
The untreated sample (♦) had greater than 1×10^9 CFU/mL after 9 hours that was sustained at 24 hours.

The subject of assay [4] is Klebsiella pneumonia. Nature of the assay: Growth (OD600) with VK28 in M9 media with magnesium / calcium. In kind it is cell-based. To be noted: 50-200 μg/ml VK28, 24 hours. As for the experimental part: Klebsiella pneumonia was grown in M9 media containing 2 mM MgSO4 for 24 hours in the presence of 0 μg/ml, 50 μg/ml, 100 μg/ml, or 200 μg/ml VK28. The OD600 was measured at 0, 4, and 24 hour and the results are shown in the time-kill curves of FIG. 16.
Klebsiella pneumonia was grown similar to as described in Example 19 in M9 media containing 2 mM MgSO4 and 1.34 mM CaCl2 for 24 hours in the presence of 0 μg/ml, 50 μg/ml, 100 μg/ml, or 200 μg/ml VK28. The OD600 was measured at 24 hour and the results are shown in the bar graph of FIG. 17.

In assay [5] the test system is MR Staphylococcus aureus (MRSA). Briefly: Growth (OD600) with VK28 in M9 media with magnesium and calcium. It counts as cell-based. The conditions noted are these: M9 with 2 mM MgSO4 and 1.35 mM CaCl2; 24 hours. Here is the method:
In this example, strains of MR Staphylococcus aureus (MRSA), Acinetobacter baumannii (Acinetobacter), Escherichia coli (E. coli), and Pseudomonas aeruginosa (Pseudomonas) were grown in M9 media in the presence of 2 mM MgSO4 and 1.35 mM CaCl2 for 24 hours in the presence or absence of 0 μg/ml, 50 μg/ml, 100 μg/ml, or 200 μg/ml of VK28. The OD600 was measured at 24 hour and the results are shown in the bar graph of FIG. 21.

The mark [6] stands for this setting: EC 35218, in combination with Cefotaxine.
[7] abbreviates: EC 35218, in combination with Colisitin.
[8] abbreviates: EC 35218, in combination with Doxycycline.
The mark [9] stands for this setting: EC 35218, in combination with Rifampin.
Setting [10] is: EC 43888, in combination with Cefotaxine.
Setting [11] is: EC 43888, in combination with Colisitin.
[12] abbreviates: EC 43888, in combination with Doxycycline.
Where [13] appears, read: EC 43888, in combination with Rifampin.

For the compound `CNC(=O)c1c(O)c(=O)cc(C)n1C1CC1` [Apo6619, 1-cyclopropyl-3-hydroxy-6-methyl-4-oxo-1,4-dihydro-pyridine-2-carboxylic acid methylamide], the FIC is listed as 1.25 in assay [1] (setting [6]); 1.25 in assay [1] (setting [7]); 1.25 in assay [1] (setting [8]); 1.75 in assay [1] (setting [9]); 1.25 in assay [1] (setting [10]); 1.25 in assay [1] (setting [11]). For the same compound, the FIC in assay [1] (setting [12]) worked out at 1.25; in assay [1] (setting [13]) it was 0.75.
`Cc1c(O)c(=O)ccn1C` [ApoL1, 3-hydroxy-1,2-dimethyl-4(1H)-pyridone]: the FIC came out at 1.25 in assay [1] (setting [6]); 1.25 in assay [1] (setting [7]); 1.25 in assay [1] (setting [8]); 0.75 in assay [1] (setting [9]); 1.25 in assay [1] (setting [10]); 1.25 in assay [1] (setting [11]). Further, the values for the FIC in assay [1] (setting [12]) and in assay [1] (setting [13]) were 1.25 and 0.75, respectively. In addition, in assay [2], the “bacterial growth (OD600 growth curves)” value is recorded as “somewhat reduced bacterial growth”. Also, the figures for the “time-kill course of CFU/ml” value in assay [3] (0.5×MIC), in assay [3] (1×MIC) and in assay [3] (2×MIC) were “slight reduction in CFU/ml levels over the 24 hour period”, “slight reduction in CFU/ml levels over the 24 hour period” and “sustained level of CFU/ml obtained over the 24 hour period”, respectively.
In the case of `OCCN1CCN(Cc2ccc(O)c3ncccc23)CC1` [VK28, 5-(4-(2-hydroxyethyl)piperazin-1-ylmethyl)-8-hydroxyquinoline], in assay [2] (50 μg/ml of VK28 with 10, 100 or 1000 μM FeCl3, low iron M9 media), the “growth with FeCl3 added (absorbance at 600 nm after 20 hours)” value is recorded as “inhibition of growth can be rescued by the addition of FeCl3”. Besides, the “growth with free iron added back” value in assay [2] (200 μM VK28 with 10 μM or 100 μM FeCl3, low iron M9 media) was “bacteria are rescued from the VK28 growth inhibition”. In assay [2], the “bacterial growth (OD600 growth curves)” value is “reduced bacterial growth to a significant extent”. In addition, the “time-kill course of CFU/ml” value in assay [3] (0.5×MIC), in assay [3] (1×MIC) and in assay [3] (2×MIC) was “slight inhibitory effect on the CFU/ml over the 24 hours” throughout. Besides, the “inhibition of growth (OD600)” value in assay [4] (M9 with 2 mM MgSO4) is “inhibition of growth is not reduced in the presence of magnesium”; in assay [4] (M9 with 2 mM MgSO4 and 1.34 mM CaCl2), “inhibition of growth is not reduced in the presence of magnesium and calcium”; in assay [5], “inhibition of growth of a number of strains of bacteria is not reduced in the presence of magnesium and calcium”.

Values taken from patent US10064858B2, “Methods and compositions for treating bacterial infections with iron chelators” (THE UNITED STATES OF AMERICA, AS REPRESENTED BY THE …, priority 2011, dated 2018).
